In publication PMC10525924, “Engineering and Purification of Microcin C7 Variants Resistant to Trypsin and Analysis of Their Biological Activity” (Antibiotics, 2023):
Entries after “also recorded” stand apart in the source; their conditions may differ. Where a SMILES comes first, the peptide text is derived from it. Where no end group is shown, it is not given here.

Columns and labels:
E. coli K88 = test: microbe, parasite or virus in culture; assay type: cell-based; conditions: agar diffusion, fermentation supernatant, not trypsin-treated
pepsin = test: Remaining amount by RP-HPLC after pepsin treatment; assay type: in vitro ADME; conditions: pepsin (isolated protease); pepsin treated for 3 h; read-out RP-HPLC; Table S2
chymotrypsin [1] = test: Remaining amount by RP-HPLC after chymotrypsin treatment; assay type: in vitro ADME; conditions: chymotrypsin (isolated protease); chymotrypsin treated for 3 h; read-out RP-HPLC; Table S2
indicator bacteria = conditions: second to seventh codons of mccA replaced; cited from earlier work
Source text: The heptapeptide precursor of McC, f-MRTGNAN, is encoded by the first gene in the mcc gene clusters, mccA [11]. Considering its protein nature, it is suitable for gene-based peptide engineering. Kazakov et al. first applied site-directed mutagenesis on the mccA gene, systematically replacing the second to seventh codons of mccA encoding 19 standard amino acids for a total of 114 mutations.

trypsin = test: Remaining amount by RP-HPLC after trypsin treatment; conditions: trypsin treatment 3 h
Experimental: To test whether the variants were tolerant to trypsin or other digestive enzymes, the amount of the remaining McC and its analogues remaining was determined by RP-HPLC after trypsin, pepsin, and chymotrypsin treated for 3 h (Table S2), and the inhibition zones of trypsin-treated variants were tested using the same method (Table 2).
The fermentation broth was collected via centrifugation at 12,000× g at 4 °C for 10 min; the supernatants contained the McC variants. The supernatants and trypsin were mixed at a ratio of 9:1 (v/v; the final concentration of trypsin was 50 μg/mL) and incubated in a bath at 37 °C for 3 h. The pH was adjusted to 6.8. The pH value of the fermentation broth was measured before and after treatment, and an approximate pH value of 7 was considered normal.

[2] = cited from earlier work
Source text: (§1) The McC as a new generation of antimicrobials is now receiving increased attention because of its antimicrobial activity against a wide range of Gram-negative bacteria, including Escherichia, Klebsiella, Salmonella, Shigella, and Proteus species. However, […] proteolytic enzymes in the stomach and the small intestine, such as pepsin, trypsin, and chymotrypsin, need to be considered before the application of McC or other microcins in different fields.

chymotrypsin [3] = conditions: cited from earlier work
Source text: as §1

Row | Molecule | bacteriostatic effect on indicator strain K88 (E. coli K88) | remaining at 3 h (pepsin) [%] | remaining at 3 h (chymotrypsin [1]) [%] | antimicrobial activity of mccA substitution variants (indicator bacteria) | degradation by / resistance to trypsin (trypsin) | stability in the gastrointestinal tract [2] | degradation upon exposure to chymotrypsin (chymotrypsin [3])
1 | CSCC[C@H](NC=O)C(=O)N[C@@H](Cc1c[nH]c2ccccc12)C(=O)N[C@H](C(=O)NCC(=O)N[C@@H](CC(N)=O)C(=O)N[C@@H](C)C(=O)N[C@@H](CC(=O)O)C(=O)NP(=O)(OCCCN)OC[C@H]1O[C@@H](n2cnc3c(N)ncnc32)[C@H](O)[C@@H]1O)[C@@H](C)O (stereo partly shown) [R2W] (HELM PEPTIDE1{[O=C[*:2]].M.W.T.G.N.A.[NCCCOP(=O)(NC(=O)[C@H](CC(=O)O)N[*:1])OC[C@H]1O[C@@H](n2cnc3c(N)ncnc32)[C@H](O)[C@@H]1O]}$$$$V2.0) | no bacteriostatic effects | 91.3 ± 1.26 | 41.3 ± 1.03 | bacteriostatic |  |  | 
2 | MRPGNAN [T3P] | no bacteriostatic effects |  |  |  | no longer degraded by trypsin; also recorded: exhibited resistance to trypsin |  | 
3 | MRPTGNAN | no bacteriostatic effects |  |  |  | no longer degraded by trypsin; also recorded: exhibited resistance to trypsin |  | 
4 | microcin J25 (GGAGHVPEYFVGIGTPISFYG; ends and bridges not checked; UniProt Q9X2V7 38-58, looked up) [microcin studied by Yu et al] |  |  |  |  |  | stable | completely degraded
